Data reported in publication PMC12166061, “Crystallographic fragment screening reveals ligand hotspots in TRIM21 PRY-SPRY domain” (Communications Chemistry, 2025).
Read-outs that look alike come from different tables or passages of the source.

What was measured:
Type in all cases: binding
[1] = target: T1, murine TRIM21 PRY-SPRY domain (Mus musculus, UniProt Q62191); experiment: Differential scanning fluorimetry (DSF, ΔTm), mouse TRIM21 PRY-SPRY domain
T1 construct: mouse TRIM21 PRY-SPRY domain (residues V291-M470, UniProt-ID: Q62191); made in house; host or cells: E. coli BL21(DE3)
T1 sequence (Q62191 291-470): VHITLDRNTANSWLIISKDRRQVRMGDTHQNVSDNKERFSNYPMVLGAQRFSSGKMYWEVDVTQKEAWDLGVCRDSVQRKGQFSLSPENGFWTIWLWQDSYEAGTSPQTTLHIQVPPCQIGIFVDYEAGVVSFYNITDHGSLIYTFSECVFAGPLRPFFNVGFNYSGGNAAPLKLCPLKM
Method: (§1) Briefly, recombinant murine and human TRIM21 PRY-SPRY domain at a concentration of 8 μM were mixed with 2 mM compound in their respective SEC buffer. SYPRO Orange (5000×, Invitrogen) was added as a fluorescence probe (1 µl per mL). Subsequently, temperature-dependent protein unfolding profiles were measured using the QuantStudio™ 5 realtime PCR machine (Thermo Fisher). Excitation and emission filters were set to 465 nm and 590 nm, respectively. The temperature was raised with a step rate of 3 °C per minute. Data points were analysed with the internal software (Thermal Shift SoftwareTM Version 1.4, Thermo Fisher) using the Boltzmann equation to determine the inflection point of the transition curve.

His-mTRIM21 PRYSPRY = target: T2, His-mTRIM21 PRYSPRY (Mus musculus, UniProt Q62191); experiment: SPR fragment screening and dose response, mouse TRIM21 PRY-SPRY
T2 construct: mouse TRIM21 PRY-SPRY domain (residues V291-M470, UniProt-ID: Q62191); made in house; host or cells: E. coli BL21(DE3)
T2 sequence (Q62191 291-470): T1 sequence (Q62191 291-470)
Method: (§2) His-mTRIM21 PRYSPRY and His-SUMO-hTRIM21 PRY-SPRY were immobilized onto flow channels (FC) FC2, FC3, and FC4 of a Series S sensor chip NTA (Cytiva). […] Proteins (10–20 µg mL^−1 in HBS-P+) were injected at 10 µL min^−1 to achieve response levels of 3500–4300 RU for mTRIM21 and 3600–4000 RU for hTRIM21. Flow channel 1 (FC1) was used as a reference surface. Surface deactivation and nickel stripping were achieved using 1 M ethanolamine and 350 mM ethylenediaminetetraacetic acid (EDTA), respectively.
(§3) Fragment screening was conducted by injecting 500 µM fragments diluted in running buffer (HBS-P+ with 1 mM TCEP and 2% (v/v) dimethyl sulfoxide (DMSO)) over all flow-channels for 30 s at 30 µL/min^−1. To account for surface drift, 50 µM of a control compound (Suramin) was injected every 15 fragment injections, and blank injections were performed every 5 fragments. Responses were analyzed by blank subtraction, reference subtraction (FC1), solvent correction, molecular weight adjustment, and drift correction using Biacore T200 Evaluation Software v3.2.1. The binding threshold for fragment hits was set based on the Suramin-binding response level.
The data was solvent-corrected, reference-subtracted (FC1), and blank-subtracted using the T200 Evaluation Software v3.2.1. Sensorgrams were subsequently replotted using Graphpad v.9 software.

[2] = target: T3, His-SUMO-hTRIM21 PRY-SPRY (Homo sapiens, UniProt P19474); experiment: SPR fragment screening, human TRIM21 PRY-SPRY
T3 construct: Human TRIM21 PRY-SPRY domain (residues V287-I465, UniProt-ID: P19474); made in house; host or cells: E. coli BL21(DE3)
T3 sequence (P19474 287-465): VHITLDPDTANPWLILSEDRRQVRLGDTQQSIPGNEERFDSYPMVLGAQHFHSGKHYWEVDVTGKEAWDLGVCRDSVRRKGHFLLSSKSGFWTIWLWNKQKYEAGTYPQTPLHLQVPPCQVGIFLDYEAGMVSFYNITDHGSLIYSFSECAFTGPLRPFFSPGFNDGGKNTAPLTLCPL
Method: as §2, §3

[3] = target: T4, human TRIM21 PRY-SPRY domain (Homo sapiens, UniProt P19474); experiment: Differential scanning fluorimetry (DSF, ΔTm), human TRIM21 PRY-SPRY domain
T4 construct: Human TRIM21 PRY-SPRY domain (residues V287-I465, UniProt-ID: P19474); His6 (N, cleaved yes); SUMO (N, cleaved yes); made in house; host or cells: E. coli BL21(DE3)
T4 sequence (P19474 287-465): as above
Method: as §1

[4] = single dose 500 µM fragment, relative response, suramin reference threshold 100 relative RU

| SMILES | Tm-shift mTRIM21 ([1]; 2 mM compound, 8 μM protein) | SPR mTRIM21 (Response) (His-mTRIM21 PRYSPRY; [4]) | SPR hTRIM21 (Response) [2, 4] | Tm-Shift hTRIM21 ([3]; 2 mM compound, 8 μM protein) | Tm-shift mTRIM21 [1] | SPR mTRIM21 (Response) (His-mTRIM21 PRYSPRY) | SPR hTRIM21 (Response) [2] | Tm-Shift hTRIM21 [3] |
| --- | --- | --- | --- | --- | --- | --- | --- | --- |
| CCc1ncc(CNC)s1 [Fragment Z1267773633] | -0.4 °C | 58.5 | 45.3 | -0.4 °C |  |  |  |  |
| CC(=O)N1C[C@H]2CC[C@H]1c1ccccc12 [Fragment Z2017861827] |  |  |  |  | -0.7 °C | 37.47 | 47.45 | -0.2 °C |
| CC(=O)N1CCCC2(CCCCCC2)C1 [Fragment Z1275599911] | -1.3 °C | 32.73 | 30.21 | -0.9 °C |  |  |  |  |
| CN1CCC(Oc2cccc(F)c2)C1=O (stereo not shown) [Fragment Z1217960891] | -0.4 °C | 74.94 | 55.59 | -0.4 °C |  |  |  |  |
| CS(=O)(=O)NCC1CCNCC1 [Fragment Z1741966151] |  |  |  |  | 0.2 °C | 29.2 | 18.48 | 0.1 °C |
| CC#CCN(C)C1CCS(=O)(=O)CC1 [Fragment Z1318110042] | 0.1 °C | 68.46 | 20.83 | 0 °C |  |  |  |  |
| Cc1nc2[nH]c(C(C)C)cc(=O)n2n1 [Fragment Z111634612] | -0.4 °C | 63.45 | 61.58 | -0.4 °C |  |  |  |  |
| NC(=S)Nc1ccccc1OC(F)(F)F [Fragment Z291279160] |  |  |  |  | -0.4 °C | 37.66 | 45.42 | -0.2 °C |
| COC1CN(S(=O)(=O)N2CCCC2)C1 [Fragment Z1343518214] |  |  |  |  | -0.1 °C | 38.32 | 34.32 | 0.2 °C |
| Cc1c(Cl)cccc1NC(=O)[C@@H]1CCCO1 [Fragment Z1545312521] | -0.9 °C | 31.58 | 24.5 | -0.7 °C |  |  |  |  |
| Cc1nccn1Cc1cccc(C#N)c1 [Fragment Z319545618] |  |  |  |  | -0.3 °C | 30.53 | 11.39 | 0 °C |
| CS(=O)(=O)Cc1nc2ccccc2[nH]1 [Fragment Z126932614] | -0.1 °C | 65.26 | 80.74 | -0.2 °C |  |  |  |  |
| CCn1cc(NC(=O)C2CCC2)cn1 [Fragment Z373768900] |  |  |  |  | -0.4 °C | 20.02 | 21.88 | -0.3 °C |
| CC(=O)Nc1cc2c(cc1C)OCO2 [Fragment Z1635496816] | 0 °C | 140.9 | 148.8 | 0.1 °C |  |  |  |  |
| O=C(c1ccc2c(c1)OCO2)N1CCCCCC1 [Fragment Z31432226] | -0.6 °C |  |  | -0.8 °C |  |  |  |  |
| Nc1ccc(S(=O)(=O)Nc2ccccn2)cc1 [Fragment Z271004858] | -0.1 °C | 106.3 | 79.01 | -0.1 °C |  |  |  |  |
| CC(NS(C)(=O)=O)c1ccccc1Cl (stereo not shown) [Fragment Z133729708] | -0.8 °C | 60.52 | 74.68 | -0.7 °C |  |  |  |  |
| COCC(=O)NCc1ccccc1 [Fragment Z31478538] | -0.3 °C | 37.9 | 38.23 | -0.3 °C |  |  |  |  |
| O=C(O)COc1ccc(F)cc1 [Fragment Z56978034] |  |  |  |  | -0.2 °C | 107.1 | 99.74 | 0 °C |

| SMILES | Tm-shift mTRIM21 ([1]; 2 mM compound, 8 μM protein) | SPR mTRIM21 (Response) (His-mTRIM21 PRYSPRY; [4]) | SPR hTRIM21 (Response) [2, 4] | Tm-Shift hTRIM21 ([3]; 2 mM compound, 8 μM protein) | Tm-shift mTRIM21 [1] | SPR mTRIM21 (Response) (His-mTRIM21 PRYSPRY) | SPR hTRIM21 (Response) [2] | Tm-Shift hTRIM21 [3] |
| --- | --- | --- | --- | --- | --- | --- | --- | --- |
| O=C(CN1CCCC1=O)Nc1nccs1 [Fragment Z79432418] |  |  |  |  | -0.4 °C | 63.39 | 61.55 | -0.3 °C |
| O=S1(=O)CCN(Cc2ccco2)CC1 [Fragment Z1568344634] | -0.2 °C | 60.76 | 40.64 | 0 °C |  |  |  |  |
| CNS(=O)(=O)Cc1cc(C)on1 [Fragment Z763030030] |  |  |  |  | -0.2 °C | 42.23 | 44.17 | -0.1 °C |
| O=C(O)C1CCCN(C(=O)Cc2ccc(F)cc2)C1 (stereo not shown) [Fragment Z85893853] | -0.4 °C | 60.46 | 49.09 | -0.1 °C |  |  |  |  |
| CC1CN(C(=O)c2cnsn2)C(C)CO1 (stereo not shown) [Fragment Z768399682] | -0.3 °C | 24.2 | 20.05 | 0 °C |  |  |  |  |
| CS(=O)(=O)NC1CCOC2(CCCC2)C1 (stereo not shown) [Fragment Z1446981563] | -0.4 °C | 27.71 | 28.35 | -0.1 °C |  |  |  |  |
| CS(=O)(=O)NCCc1ccc(F)cc1 [Fragment Z45705015] | -0.5 °C | 46.34 | 48.3 | -0.2 °C |  |  |  |  |
| CN(C)C(=O)N1CCOCC12CCOC2 (stereo not shown) [Fragment Z1998104358] |  |  |  |  | 0 °C | 24.94 | 21.66 | 0.1 °C |
| Cl.O=C(c1cn[nH]c1)N1CCCC1 [Fragment Z1266933824] |  |  |  |  | -0.3 °C | 127.7 | 193.6 | -0.1 °C |
| OCc1cn(-c2ccc(Cl)cc2)nn1 [Fragment Z1374778753] |  |  |  |  |  | 169.5 | 114.8 |  |
| COC1CN(Cc2cncs2)CCC1C (stereo not shown) [Fragment Z1787761777] | -1.6 °C | -42.9 | -50.75 | -0.3 °C |  |  |  |  |
| CN(C)c1ccncc1 [Fragment Z1245793018] | 0.1 °C | 131.3 | 47.83 | 0 °C |  |  |  |  |
| CC(=O)N1CCCC(CNS(C)(=O)=O)C1 (stereo not shown) [Fragment Z438096750] | 0 °C | 42.61 | 40.93 | -0.2 °C |  |  |  |  |
| Cc1cc(Cn2nc(C)ccc2=O)on1 [Fragment Z1079512010] | -0.3 °C | 50.4 | 45.75 | -0.1 °C |  |  |  |  |
| CC(=O)NCc1ccnc(N(C)C)c1 [Fragment Z374427992] | -0.1 °C | 50.3 | 46.45 | -0.1 °C |  |  |  |  |
| O=C(NC1CC1)c1cnn2cccnc12 [Fragment Z285642082] |  |  |  |  | -0.3 °C | 44.74 | 43.71 | -0.2 °C |
| CCCc1cc(=O)oc2cc(OC(C)=O)ccc12 [Fragment Z29634868] |  | 78.57 | 95.03 |  |  |  |  |  |
| CC(=O)N1Cc2ccc(N)cc2C1 [Fragment Z1354416068] | 0 °C | 104.9 | 107.4 | 0.1 °C |  |  |  |  |
